# Measured values as given in patent US8871919B2, “RNAi therapeutic for treatment of Hepatitis C infection” (Florida State University Research Foundation, priority 2007, dated 2014).
# Entries after “also recorded” stand apart in the source; their conditions may differ.
# How the values were obtained:
# GS5 replicon cells [1] = test: NS5A expression in GS5 replicon cells (Western blot); assay type: cell-based, Hepatitis C virus; conditions: for NS5A expression: GS5 cells
# RS2 replicon cells [2] = test: NS5A expression in CsA-resistant RS2 replicon cells (Western blot); assay type: cell-based, Hepatitis C virus; conditions: lentiviral shRNA, 7 days
# HCV = conditions: cited from earlier work
# CyPA [3] = test: CyPA expression in RS2 cells (Western blot); assay type: cell-based, human; conditions: RS2 cells stably expressing shRNA (FIG. 3B)
# Method: (§1) A human immunodeficiency virus (HIV)-based lentiviral vector is used to express all of the short hairpin RNAs (shRNAs). […] Target or sense sequences for the other shRNAs are as follows:
# (§2) The above sequences may be converted to RNA sequences by changing each thymine (T) to uracil (U). Lentiviral vector production and transduction are performed as described previously (44). Stable cells expressing shRNAs are obtained by selection with 1 μg/ml of puromycin (MP Biomedicals, Solon, Ohio) for 3 weeks.
# [4] = tested on: Con1 (GT 1b) replicon cells; test: NS5A expression in Con1 (GT 1b) replicon cells, transient transduction; assay type: cell-based, Hepatitis C virus; conditions: transient transduction (FIG. 4D)
# From the text: (§3) FIG. 4D is an image of Western blots showing expression of the proteins NS5A, CyPB, and CyPA in H77 (GT 1a) and Con1 (GT 1b) replicon cells transduced with the indicated shRNAs (sh-Luc or sh-A161);
# CyPA [5] = test: CyPA expression in GS5 cells (Western blot); assay type: cell-based, human
# Method: as §1, §2
# [6] = tested on: GT 1a (H77) subgenomic replicon; test: Colony formation in stable Huh-7.5 cells electroporated with GT 1a (H77) replicon RNA; assay type: cell-based, Hepatitis C virus; conditions: stable Huh-7.5 cells (FIG. 4C)
# From the text: (§4) FIG. 4C is an image of plates containing stained Huh-7.5 cells transduced with several shRNAs (sh-Luc, sh-A159, sh-B710, or sh-C454) after four weeks following electroporation with one microgram of either H77 (GT 1a) or Con1 (GT 1b) replicons;
# (§5) GS5 and RS2 cells contain GT 1b replicons with the GFP gene inserted into the NS5A region. (See, e.g., Moradpour, D. et al., “Insertion of green fluorescent protein into nonstructural protein 5A allows direct visualization of functional hepatitis C virus replication complexes,” J. Virol. 78:7400-7409 (2004); Nelson, H. B. et al., “Effect of cell growth on hepatitis C virus (HCV) replication and a mechanism of cell confluence-based inhibition of HCV RNA and protein expression,” J. Virol. 80:1181-1190 (2006)). Next the effect of CyPA knock-down on replicons without GFP is examined. Both GT 1a and 1b replicons are tested. To this end, stable Huh-7.5 cell lines are established that express the various shRNAs and then challenges them, by electroporation, with in vitro-transcribed GT 1a (H77) and 1b (Con1) subgenomic replicon RNAs. The shRNAs effectively silence the expression of their respective targets in the stable cells as expected (FIGS. 4A and 4B). No defect in morphology or growth rate is detected for any of the stable cell lines, confirming that these CyPs are dispensable for cell survival in vitro.
# Rep1b RNA = conditions: day 4 vs 7 hours after electroporation (FIG. 2E)
# Method: A parallel electroporation of Rep1b RNA into Huh-7.5/sh-Luc cells serves as a positive control, which is set at 100%;
# One microgram of replicon RNA is mixed with 9 μg of a pcDNA3.1-based plasmid containing no insert, CyPA cDNA, CyPB cDNA, or CyPC cDNA and used in a standard electroporation (36). RNA is extracted 7 h and 4 days post-electroporation and subjected to quantitative RT-PCR analysis to detect HCV RNA as described previously (See, e.g., Robida, J. M et al., Characterization of hepatitis C virus subgenomic replicon resistance to cyclosporine in vitro, J. Virol., 81:5829-5840 (2007). All the CyP cDNAs are tagged with a Myc epitope at the C terminus, and the CyPA cDNA containing silent mutations in the sh-A159 recognition site is designated CyPA#.
# [7] = tested on: vesicular stomatitis virus; assay type: cell-based; conditions: sh-A159 Huh-7.5 cells (FIG. 5D)
# GS5 replicon cells [8] = test: Colony formation assay, puromycin and G418 double selection, GS5 cells; assay type: cell-based, Hepatitis C virus
# [9] = tested on: H77 (GT 1a) replicon cells; test: NS5A expression in H77 (GT 1a) replicon cells, transient transduction; assay type: cell-based, Hepatitis C virus; conditions: transient transduction (FIG. 4D)
# From the text: as §3
# HCVcc/JFH-1 = HCVcc/JFH-1 infection of Huh-7.5 cells; assay type: cell-based, Hepatitis C virus
# From the text: FIG. 5A is an image of an RNA gel showing HCV IRES RNA levels relative to cellular RNA helicase A (RHA) RNA in total RNA extracts from Huh7.5 cells transduced with several shRNAs (sh-Luc, sh-A159, or sh-B710) following infection with HCVcc/JFH-1 for nine days;
# FIG. 5B is a fluorescence microscopy image showing anticore antibody and DAPI (4′,6′-diamidino-2-phenylindole) staining of paraformaldehyde fixed Huh7.5 cells transduced with either sh-Luc or sh-A159 following infection with HCVcc/JFH-1 for nine days;
# FIG. 5C is an image of Western blots showing expression of the proteins NS3, GAPDH, and CyPA in total protein extracts from Huh7.5 cells transduced with the indicated shRNAs (sh-Luc or sh-A159) at 0, 9, or 12 days after infection with HCVcc/JFH-1 replicons; […]
# Full-length JFH-1 cDNA is provided by Takaji Wakita. Production of infectious HCVcc and infection of Huh-7.5 cells are performed as described previously (See, e.g., Zhong, J. et al., “Robust hepatitis C virus infection in vitro,” Proc. Natl. Acad. Sci. USA, 102:9294-9299 (2005)). Western blotting and immunostaining of infected cells are carried out according to standard methods.
# RS2 replicon cells [10] = test: Colony formation assay, puromycin and G418 double selection, RS2 cells; assay type: cell-based, Hepatitis C virus
# [11] = tested on: GT 1b (Con1) subgenomic replicon; test: Colony formation in stable Huh-7.5 cells electroporated with GT 1b (Con1) replicon RNA; assay type: cell-based, Hepatitis C virus; conditions: stable Huh-7.5 cells (FIG. 4C)
# From the text: as §4, §5
# RS2 replicon cells [12] = test: NS5A-GFP expression in RS2 cells by FACS; assay type: cell-based, Hepatitis C virus
# From the text: In contrast to the GS5 replicon, RS2 replicates efficiently in the presence of substantial CyPA knock-down (FIG. 1D).
# [13] = synthesized siRNA duplex, transient transfection (FIG. 2C)
substance,measurement,setting,value
"sh-C454: shRNA directed at CyPC, nucleotides 454-474 of human CyPC cDNA (SEQ ID NO: 10) (AAGACTGAAGGTGTGCTGGTA) [reference compound]",NS5A expression,"GS5 replicon cells [1]; lentiviral shRNA, 7 days",no effect
same,NS5A expression,RS2 replicon cells [2],no effect
alpha-interferon and ribavirin,"sustained efficacy, share of patients",HCV,40%
"sh-A159: shRNA against CyPA; sense sequence nucleotides 159 through 179 of human CyPA cDNA, hairpin UUCAAGAGA (SEQ ID NO: 3) (AAGGGUUCCUGCUUUCACAGAUUCAAGAGAUCUGUGAAAGCAGGAACCCUU)",CyPA expression,CyPA [3],substantial suppression
same,NS5A expression,[4],inhibitory effect
same,CyPA expression,"CyPA [5]; lentiviral shRNA, 7 days (FIG. 2B)",knock down CyPA expression; also recorded: most effective
same,NS5A expression,"GS5 replicon cells [1]; lentiviral shRNA, 7 days",inhibits NS5A expression; also recorded: most effective
same,NS5A expression with sh-A159-insensitive CyPA cDNA (Myc-A#),"GS5 replicon cells [1]; replicon cells, sh-A159 together with Myc-A# (FIG. 2D)",partially rescued
same,ability of replicon RNA to form colonies,[6],completely inhibits
same,HCV RNA replication with sh-A159-insensitive CyPA cDNA (Myc-A#),Rep1b RNA,partially rescued
same,susceptibility to infection by vesicular stomatitis virus,[7],fully susceptible
same,number of double-resistant colonies,GS5 replicon cells [8],significantly lower number
same,NS5A expression,[9],inhibitory effect
same,HCV infection of stable shRNA cells,"HCVcc/JFH-1; Huh-7.5, HCVcc/JFH-1, RT-PCR, core staining, NS3 Western blot",highly refractory to infection
same,viral replication (NS3 expression) in an existing infection,"HCVcc/JFH-1; Huh-7.5 infected with JFH-1 for 10 days, then transduced, NS3 measured 7 days after transduction",suppresses viral replication
same,number of double-resistant colonies,RS2 replicon cells [10],not observed
same,ability of replicon RNA to form colonies,[11],completely inhibits
same,suppression of NS5A-GFP expressing RS2 cells,"RS2 replicon cells [12]; no selection, 0.5 μg/ml CsA, FACS (FIG. 3C)",no significant suppression
same,sensitivity of RS2 replicon to CsA relative to RS2/sh-Luc,"RS2 replicon cells [12]; stable RS2 cells, CsA 4 days, FACS (FIG. 3A)",six to eight times more sensitive
"si-A159: synthesized siRNA duplex form of sh-A159 (sense SEQ ID NO: 2, antisense SEQ ID NO: 4) (sense AAGGGUUCCUGCUUUCACAGA; antisense UCUGUGAAAGCAGGAACCCUU; listed as RNA, chemistry not given here)",CyPA expression,CyPA [5]; [13],inhibited; also recorded: no more potent than si-A285
same,NS5A expression,GS5 replicon cells [1]; [13],inhibited
